Measured values as given in patent publication US20090226455A1, “COMBINATION THERAPY WITH C-MET AND HER ANTAGONISTS” (Genentech, Inc., priority 2008, published 2009).

Tests used:
EBC-1 shMet-4.5 tumors = test: EBC-1 shMet-4.5 NSCLC xenograft model, tumor growth inhibition; assay type: in vivo, nude mice (nu/nu); conditions: compared to sucrose control at day 29; pertuzumab 5 mg/kg IP once a week; Dox 1 mg/mL in 5% sucrose drinking water (induces c-met shRNA knockdown)
Description: Control antibodies mouse IgG2a isotype 10D9-1E11-1F12 (anti-Ragweed) antibody and the human IgG1 isotype hu5B6 (anti-gD) antibody were obtained from the Antibody Engineering Department at Genentech, Inc., in a clear liquid form and were diluted in 1×PBS. Doxycycline (Dox) was prepared fresh at 0.5 or 1 mg/mL in 5% sucrose water and was regularly exchanged every 3 days. In Dox studies, control animals were given 5% sucrose water that was exchanged every 3 days. Materials were stored in a refrigerator set to maintain a temperature range of 4° C. to 8° C. […]
To prepare cells for inoculation into mice, cells were trypsinized, washed with ten milliliters of sterile 1× phosphate buffered saline (PBS). A subset of cells was counted by trypan blue exclusion and the remainder of cells was resuspended in 100 μl of sterile 1× PBS to a concentration of 5×10^7 cells per milliliter. […] Tumors were monitored until they reached a mean volume of 200 mm^3.
Mice in Group 1 were treated with anti-Ragweed control antibody (5 mg/kg, IP, once a week for 5 weeks) and given 5% sucrose drinking water. […] Tumor volumes were monitored through day 29. […]
Tumor inhibition was plotted using KaleidaGraph 3.6 (Synergy Software; Reading, Pa.). Percent growth inhibition (% Inh) was calculated as follows: […]
Tumor incidence was determined by the number of measurable tumors in each group at the end of study. […]

advanced ovarian cancer = conditions: 3 subjects with advanced ovarian cancer treated; one subject; cited from earlier work

Compound | tumor inhibition (reduction in tumor growth) (EBC-1 shMet-4.5 tumors) [%] | clinical response (advanced ovarian cancer)
C[C@H]1c2cccc(O)c2C(=O)C2=C(O)[C@]3(O)C(=O)C(C(N)=O)=C(O)[C@@H](N(C)C)[C@@H]3[C@@H](O)[C@@H]21 [Dox, Doxycycline, reference compound] | 54 | –
pertuzumab: humanized antibody that inhibits the dimerization of HER2 with other HER receptors; light and heavy chain SEQ ID NOs 15 and 16 | 43.6 | durable partial response
